Laboratory results as given in US5013544A, “Contraceptive methods and compositions” (The Victoria University of Manchester, priority 1988, dated 1991).

Tests used:
sperm = experiment: Site of spermicidal action (vagina, cervical mucus); conditions: vagina and cervical mucus; no test described
sperm (semen) = experiment: Spermicidal action in isotonic aqueous sucrose: % of sperm motile 1 minute after contact (Example 2); format: cell-based, human
Protocol: (§1) Chlorhexidine, as the diacetate salt, and/or nonoxynol-9 (50 μl. of an appropriate aqueous dilution) was dissolved in Tyrodes T6 balanced salt solution supplemented with 4 mg./ml. of human albumin. The solution was prepared and used immediately, by being mixed with 50 μl. of fresh human semen with a sperm concentration of at least 50 million per ml, and a motility of at least 80%, and incubated at 25 degrees C. for about 1 minute.
(§2) The motility of the sperm so treated was measured by one of two methods:
(§3) (1) If the concentration of chlorhexidine caused protein precipitation, motility was estimated by phase contrast microscopy at 200× magnification in a 10 μm deep counting chamber.
(§4) (2) If the solution remained optically clear, motility was measured by laser Doppler spectroscopy. This technique involves the analysis by auto-correlation of the fraction of the scattered laser light which contains the Doppler-shifted frequencies generated by interaction between the incident laser and the sperm head.
The procedure of Example 1 was repeated, using solutions of the specified compounds (nonoxenol-9 and chlorhexidine diacetate) in an isotonic aqueous solution of sucrose, the spermicidal action of nonoxenol-9 and chlorhexidine diacetate, derived from five examinations, each being measured in duplicate. The concentrations are the final values in semen.
The values expressed are the percentages, expressed as a mean, of the sperm which are motile 1 minute after contact with the spermicide.

human semen (sperm) = experiment: Inhibition of motility of human sperm, ~1 min, in Tyrodes T6 medium (Example 1); format: cell-based; conditions: about 1 minute, 25 degrees C., Tyrodes T6 + human albumin
Protocol: as §1, §2, §3, §4

[1] = Stability of spermicidal activity of chlorhexidine / composition in solution; format: physicochemical

Row | Molecule | site of spermicidal action (sperm) | percentage of the sperm which are motile 1 minute after contact (mean) (sperm (semen); Nonoxynol-9 0.2 mg/ml, chlorhexidine 0, untreated 50.37) [%] | percentage of the sperm which are motile 1 minute after contact (mean) (sperm (semen); Nonoxynol-9 0.4 mg/ml, chlorhexidine 0, untreated 50.37) [%] | percentage of the sperm which are motile 1 minute after contact (mean) (sperm (semen); Nonoxynol-9 0.6 mg/ml, chlorhexidine 0, untreated 50.37) [%] | % Inhibition of motility (human semen (sperm); 0.5 mg./ml.) | % Inhibition of motility (human semen (sperm); 2 mg./ml.) [%] | loss of spermicidal activity ([1]; chloride ion at physiological concentrations) | tendency to lose spermicidal activity ([1]; in some circumstances and formulations, associated with certain anions) | stability of aqueous solution ([1]; isotonic aqueous sucrose solution) | percentage of the sperm which are motile 1 minute after contact (mean) (sperm (semen); Chlorhexidine 0.5 mg/ml, nonoxynol-9 0, untreated 50.37) [%] | percentage of the sperm which are motile 1 minute after contact (mean) (sperm (semen); Chlorhexidine 1.0 mg/ml, nonoxynol-9 0, untreated 50.37) [%] | percentage of the sperm which are motile 1 minute after contact (mean) (sperm (semen); Chlorhexidine 2.0 mg/ml, nonoxynol-9 0, untreated 50.37) [%] | percentage of the sperm which are motile 1 minute after contact (mean) (sperm (semen); Chlorhexidine 5.0 mg/ml, nonoxynol-9 0, untreated 50.37) [%] | inhibition at 2000 µg/mL (human semen (sperm); Sperm, 1 min, 2 mg./ml.) [%]
1 | Nonoxynol-9 | only spermicidal in the vagina and does not enter the cervical mucus | 31.09 | 0 | 0 | ZERO | 100 | – | – | – | – | – | – | – | –
2 | [H]/N=C(\N/C(=N/[H])NCCCCCCNC(=N)NC(=N)Nc1ccc(Cl)cc1)Nc1ccc(Cl)cc1 [Chlorhexidine, 1:6-di-(N-p-chlorophenyl-diguanido)-hexane] | acts as a spermicide both in the vagina and in the cervical mucus | – | – | – | ZERO | – | lose its spermicidal activity in less than two hours | marked tendency to lose its spermicidal activity | remained stable for greater than three days | 39.32 | 16.14 | 10.02 | 0 | 5
